What is called IC50 is the concentration needed to halve the response being measured.

Counter-ions that a name gives are not always drawn.

Type in all cases: biochemical
One assay deals with T1, recombinant human VAP-1 (Homo sapiens, UniProt Q16853).
T1 construct: purchased R&D systems
T1 sequence (Q16853 1-763): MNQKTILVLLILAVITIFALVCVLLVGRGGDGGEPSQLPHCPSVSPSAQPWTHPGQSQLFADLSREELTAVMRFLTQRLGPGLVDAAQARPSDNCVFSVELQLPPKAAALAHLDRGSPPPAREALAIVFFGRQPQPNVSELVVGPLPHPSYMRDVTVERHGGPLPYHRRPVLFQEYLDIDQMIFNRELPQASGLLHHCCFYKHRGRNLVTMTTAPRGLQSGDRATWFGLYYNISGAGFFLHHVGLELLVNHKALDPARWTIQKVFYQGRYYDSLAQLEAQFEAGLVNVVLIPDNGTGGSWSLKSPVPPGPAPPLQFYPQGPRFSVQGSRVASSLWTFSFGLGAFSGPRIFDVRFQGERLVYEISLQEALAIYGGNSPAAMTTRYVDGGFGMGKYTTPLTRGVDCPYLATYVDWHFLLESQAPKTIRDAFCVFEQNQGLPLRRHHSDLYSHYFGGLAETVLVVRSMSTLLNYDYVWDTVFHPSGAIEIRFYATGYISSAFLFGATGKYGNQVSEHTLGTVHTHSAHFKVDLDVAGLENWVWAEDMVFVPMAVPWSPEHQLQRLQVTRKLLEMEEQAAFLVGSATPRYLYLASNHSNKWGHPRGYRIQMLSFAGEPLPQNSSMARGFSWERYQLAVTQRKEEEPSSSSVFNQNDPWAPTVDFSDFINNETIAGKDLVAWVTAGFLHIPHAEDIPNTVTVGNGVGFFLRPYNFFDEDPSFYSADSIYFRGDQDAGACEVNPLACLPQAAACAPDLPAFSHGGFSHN
The experiment in a line: Activity on recombinant human VAP-1, Amplex Red HRP-coupled hydrogen peroxide assay, benzylamine substrate. The conditions noted are these: recombinant human VAP-1, benzylamine substrate; read-out: Inhibitory Activity (IC50, nM) human VAP-1. An outline of the steps:
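Compounds were preincubated with purified enzyme in 50 mM sodium phosphate pH 7.4 at 37 °C for 30 min, then 200 uM Amplex Red, 1 mM benzylamine and 1 U/mL HRP were added. Resorufin fluorescence (ex 544/em 590 nm) was followed over 1-2 h; IC50 came from 4-parameter fits of signal-rate inhibition.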

Assay [1] deals with T2, recombinant human MAO-A (monoamine oxidase-A) (Homo sapiens, UniProt P21397).
T2 construct: purchased Sigma-Aldrich
T2 sequence (P21397 1-527): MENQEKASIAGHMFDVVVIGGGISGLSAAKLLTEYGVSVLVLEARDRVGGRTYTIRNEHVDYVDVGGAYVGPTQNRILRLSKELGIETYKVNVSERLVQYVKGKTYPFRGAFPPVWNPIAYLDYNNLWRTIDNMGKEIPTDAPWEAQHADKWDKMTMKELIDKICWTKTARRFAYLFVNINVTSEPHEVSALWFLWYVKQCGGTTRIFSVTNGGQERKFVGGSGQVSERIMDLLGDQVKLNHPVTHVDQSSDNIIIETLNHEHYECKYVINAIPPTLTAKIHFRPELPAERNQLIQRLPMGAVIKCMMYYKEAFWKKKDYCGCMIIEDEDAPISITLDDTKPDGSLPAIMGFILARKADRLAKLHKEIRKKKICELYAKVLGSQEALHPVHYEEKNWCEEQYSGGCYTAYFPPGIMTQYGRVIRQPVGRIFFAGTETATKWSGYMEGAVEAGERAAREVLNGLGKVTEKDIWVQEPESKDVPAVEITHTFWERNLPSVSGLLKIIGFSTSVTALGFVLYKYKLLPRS
Kind of assay: Activity on recombinant human MAO-A, Amplex Red method, 0.5 mM tyramine substrate. The conditions noted are these: 0.5 mM tyramine substrate, read-out: Inhibitory Activity (IC50, nM) MAO-A. The method in brief:
(§1)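 8-point, 1:3 dose-response, four-parameter logistic IC50 from reduction in fluorescence rate versus DMSO control. HRP/Amplex Red detection of H2O2 (ex 544, em 590 nm) after 30 min, 37 °C compound–enzyme preincubation in pH 7.4 phosphate buffer. MAO-A substrate: 0.5 mM tyramine; MAO-B: 1 mM benzylamine.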

The target in assay [2] is T3, recombinant human MAO-B (monoamine oxidase-B) (Homo sapiens, UniProt P27338).
T3 construct: purchased Sigma-Aldrich
T3 sequence (P27338 1-520): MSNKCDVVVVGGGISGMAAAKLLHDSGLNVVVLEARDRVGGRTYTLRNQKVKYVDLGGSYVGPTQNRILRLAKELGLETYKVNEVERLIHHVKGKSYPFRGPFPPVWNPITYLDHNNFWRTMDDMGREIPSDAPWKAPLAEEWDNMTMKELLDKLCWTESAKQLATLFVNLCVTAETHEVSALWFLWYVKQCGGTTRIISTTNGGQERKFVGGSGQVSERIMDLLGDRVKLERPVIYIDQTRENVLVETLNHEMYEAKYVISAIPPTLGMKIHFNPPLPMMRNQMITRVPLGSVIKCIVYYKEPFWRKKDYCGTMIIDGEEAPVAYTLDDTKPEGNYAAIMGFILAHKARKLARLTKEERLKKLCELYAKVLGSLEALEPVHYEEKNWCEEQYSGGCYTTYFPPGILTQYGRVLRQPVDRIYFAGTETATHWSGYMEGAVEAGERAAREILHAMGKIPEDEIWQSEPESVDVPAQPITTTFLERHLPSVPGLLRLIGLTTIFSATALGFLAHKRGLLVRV
Kind of assay: Activity on recombinant human MAO-B, Amplex Red method, 1 mM benzylamine substrate. The conditions noted are these: 1 mM benzylamine substrate, read-out: Inhibitory Activity (IC50, nM) MAO-B. An outline of the steps:
as §1

The target in assay [3] is T4, recombinant human DAO (diamine oxidase) (Homo sapiens, UniProt P19801).
T4 construct: purchased R&D systems
T4 sequence (P19801 20-751): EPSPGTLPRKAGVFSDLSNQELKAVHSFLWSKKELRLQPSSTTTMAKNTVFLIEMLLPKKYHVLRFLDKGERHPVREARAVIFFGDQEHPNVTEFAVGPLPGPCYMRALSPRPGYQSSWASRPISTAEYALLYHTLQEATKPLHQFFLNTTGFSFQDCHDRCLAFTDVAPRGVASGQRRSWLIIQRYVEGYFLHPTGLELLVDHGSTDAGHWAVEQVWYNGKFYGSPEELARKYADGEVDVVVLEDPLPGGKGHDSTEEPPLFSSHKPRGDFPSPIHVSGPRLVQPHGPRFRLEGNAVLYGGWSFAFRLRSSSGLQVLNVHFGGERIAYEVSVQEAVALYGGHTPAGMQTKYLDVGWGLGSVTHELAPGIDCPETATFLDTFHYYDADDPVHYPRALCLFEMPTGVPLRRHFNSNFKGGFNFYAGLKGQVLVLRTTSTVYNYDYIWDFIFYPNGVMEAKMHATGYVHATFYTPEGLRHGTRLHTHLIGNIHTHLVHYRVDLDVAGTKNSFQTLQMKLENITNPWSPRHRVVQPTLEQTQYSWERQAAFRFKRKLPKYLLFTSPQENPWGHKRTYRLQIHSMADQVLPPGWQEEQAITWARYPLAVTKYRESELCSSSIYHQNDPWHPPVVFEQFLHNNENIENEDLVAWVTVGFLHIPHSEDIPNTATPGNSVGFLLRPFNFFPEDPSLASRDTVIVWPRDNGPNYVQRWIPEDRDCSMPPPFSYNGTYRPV
Kind of assay: Activity on recombinant human DAO, Amplex Red method, 1 mM putrescine substrate. The conditions noted are these: recombinant human DAO, 1 mM putrescine substrate; read-out: Inhibitory Activity (IC50, nM) DAO. An outline of the steps: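 Inhibition of recombinant human DAO (diamine oxidase, R&D systems) was assessed with the Amplex Red Hydrogen Peroxide Assay Kit. Hydrogen peroxide produced from 1 mM putrescine was detected through an HRP-coupled reaction that converts Amplex Red into fluorescent resorufin, read at 544 nm excitation and 590 nm emission. IC50 values came from four-parameter logistic fits in GraphPad Prism.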

Turning to `NC/C(=C/F)Cn1ncn(-c2ncc(-c3ccc4c(c3)OCO4)s2)c1=O` [Example 232, 2-[(2Z)-2-(aminomethyl)-3-fluoroprop-2-en-1-yl]-4-[5-(1,3-benzodioxol-5-yl)-1,3-thiazol-2-yl]-2,4-dihydro-3H-1,2,4-triazol-3-one hydrochloride], the IC50 was 0.78 nM on recombinant human VAP-1, 24 nM in assay [1], less than 100 nM in assay [2] and less than 100 nM in assay [3].
On to `NC/C(=C/F)Cn1ncn(-c2ncc(-c3ccc4nonc4c3)s2)c1=O` [Example 234, 2-[(2Z)-2-(aminomethyl)-3-fluoroprop-2-en-1-yl]-4-[5-(2,1,3-benzooxadiazol-5-yl)-1,3-thiazol-2-yl]-2,4-dihydro-3H-1,2,4-triazol-3-one hydrochloride], for which the IC50 on recombinant human VAP-1 is 0.98 nM; in assay [1], less than 100 nM; in assay [2], 10.1 nM; in assay [3], less than 100 nM.
In the case of `CC(=O)Nc1nc(Cc2ccc(-n3cnn(C/C(=C/F)CN)c3=O)cc2)cs1` [Example 235, hydrochloride], the IC50 on recombinant human VAP-1 is 0.43 nM; in assay [1], greater than 100000 nM; in assay [2], 2580 nM; in assay [3] it was less than 100 nM.
As to `NC/C(=C\F)Cn1ncn(-c2cc(/C=C/c3ccccc3)ccn2)c1=O` [Example 236, 2-[(2E)-2-(aminomethyl)-3-fluoroprop-2-en-1-yl]-4-{4-[(E)-2-phenylethenyl]pyridin-2-yl}-2,4-dihydro-3H-1,2,4-triazol-3-one hydrochloride], the half-maximal inhibitory concentration (IC50) on recombinant human VAP-1 was 0.8 nM; in assay [1], greater than 10000 nM; in assay [2], 16 nM; in assay [3], 6.4 nM.
For `NC/C(=C\F)Cn1ncn(-c2cccc(/C=C/c3ccsc3)n2)c1=O` [Example 237, 2-[(2E)-2-(aminomethyl)-3-fluoroprop-2-en-1-yl]-4-{6-[(E)-2-(thiophen-3-yl)ethenyl]pyridin-2-yl}-2,4-dihydro-3H-1,2,4-triazol-3-one], the IC50 at recombinant human VAP-1 is 2.4 nM; in assay [1], 20000 nM; in assay [2] it was less than 100 nM; in assay [3] it was 170 nM.
As to `NC/C(=C\F)Cn1ncn(-c2cccc(/C=C/c3ccc(C(F)(F)F)cc3)n2)c1=O` [Example 238, 2-[(2E)-2-(aminomethyl)-3-fluoroprop-2-en-1-yl]-4-(6-{(E)-2-[4-(trifluoromethyl)phenyl]ethenyl}pyridin-2-yl)-2,4-dihydro-3H-1,2,4-triazol-3-one Hydrochloride], the IC50 stood at 0.9 nM at recombinant human VAP-1, 34000 nM in assay [1], 1600 nM in assay [2] and 15 nM in assay [3].
The like results for `CN(C)c1ccc(/C=C/c2cccc(-n3cnn(C/C(=C/F)CN)c3=O)n2)cc1` [Example 239, 2-[(E)-2-(aminomethyl)-3-fluoro-allyl]-4-[6-[(E)-2-[4-(dimethylamino)phenyl]vinyl]-2-pyridyl]-1,2,4-triazol-3-one hydrochloride] were, in that order, 1.6 nM, greater than 100000 nM, 230 nM and 1600 nM.
In the case of `CN1CNc2cc(/C=C/c3cccc(-n4cnn(C/C(=C/F)CN)c4=O)n3)cnc21` [Example 240, 2-[(E)-2-(aminomethyl)-3-fluoro-allyl]-4-[6-[(E)-2-(3-methyl-1,2-dihydroimidazo[4,5-b]pyridin-6-yl)vinyl]-2-pyridyl]-1,2,4-triazol-3-one hydrochloride], the IC50 at recombinant human VAP-1 was 1 nM; in assay [1] it was greater than 100000 nM; in assay [2], greater than 10000 nM; in assay [3], 4 nM.
On to `NC/C(=C\F)Cn1ncn(-c2cccc(/C=C/c3cnc4c(c3)NC(=O)CO4)n2)c1=O` [Example 241, 7-[(E)-2-[6-[1-[(E)-2-(aminomethyl)-3-fluoro-allyl]-5-oxo-1,2,4-triazol-4-yl]-2-pyridyl]vinyl]-1H-pyrido[2,3-b][1,4]oxazin-2-one hydrochloride], for which the IC50 at recombinant human VAP-1 was 0.5 nM; in assay [1] it was greater than 100000 nM; in assay [2] it was greater than 10000 nM; in assay [3], 1 nM.
The like results for `NC/C(=C\F)Cn1ncn(-c2cccc(/C=C/c3cnc4[nH]c(=O)oc4c3)n2)c1=O` [Example 242, 6-[(E)-2-[6-[1-[(E)-2-(aminomethyl)-3-fluoro-allyl]-5-oxo-1,2,4-triazol-4-yl]-2-pyridyl]vinyl]-3H-oxazolo[4,5-b]pyridin-2-one hydrochloride] were, in that order, 1.5 nM, greater than 100000 nM, greater than 10000 nM and 21 nM.
The like results for `NC/C(=C\F)Cn1ncn(-c2cccc(C#Cc3cccnc3)c2)c1=O` [Example 243, 2-[(2E)-2-(aminomethyl)-3-fluoroprop-2-en-1-yl]-4-[3-(pyridin-3-ylethynyl)phenyl]-2,4-dihydro-3H-1,2,4-triazol-3-one hydrochloride] were, in that order, 0.6 nM, greater than 100000 nM, 940 nM and 18 nM.

(Values after US11492335B2, “Aryl or heteroaryl triazolone derivatives or salts thereof, or pharmaceutical compositions comprising the same” (YUHAN CORPORATION, priority 2018, dated 2022).)
